# According to patent US9029409B2, “Isoxazolines as therapeutic agents” (AbbVie Inc., priority 2011, dated 2015):
# Target: T1, recombinant human MMP13 catalytic domain (CD) (Homo sapiens, UniProt P45452)
# T1 construct: catalytic domain (CD) construct encompassing residues 20-274 (SWISS-PROT P45452); made in house
# Assay: MMP-13 catalytic domain FRET enzyme assay
# Assay type: biochemical
# Conditions: recombinant human MMP-13 catalytic domain
# Description: A recombinant human MMP13 catalytic domain (CD) construct encompassing residues 20-274 (SWISS-PROT P45452) was generated by synthetic gene methods and bacterial expression. MMP-13 activity assays were performed using the recombinant human MMP-13 CD at a 0.4 nM concentration and the fluorogenic substrate (QXL-520)-K-P-L-A˜Nva-Dap(5-FAM)-A-R-NH2 (Anaspec cat #60554-01, San Jose, Calif.) at a 0.25 μM concentration in assay buffer containing […], pH 7.5, 10 mM CaCl2, 150 mM NaCl, 0.05% Brij 35. The assay is based on the cleavage of this substrate by MMP-13, resulting in decrease of FRET between the donor-acceptor pair and subsequent fluorescence enhancement. The assays were carried out in 384-well plates (Greiner cat #781076, Germany) for 60 min at RT. After the incubation period, the reaction was quenched by the addition of 5 μL of 500 mM EDTA (100 mM final concentration) (Rankem, Cat #E0120, India) mixed well and the rate of substrate hydrolysis was determined by monitoring change in fluorescence at excitation and emission wavelengths of 485 nm and 535 nm respectively. Fluorescence was measured on a Victor V5 plate reader (Perkin Elmer, Turku, Finland). The test compounds used for assessing the potency of inhibition of MMP-13 activity were dissolved in DMSO (final DMSO concentration in the assay was 5%). Selected compounds were also screened against full length MMP13 (R&D Systems (Cat. No. 511-MM-010), Minneapolis, Minn.) at 2 nM concentration using the same fluorogenic substrate mentioned above. The enzyme was activated using 1 m Mp-aminophenylmercuric acetate—APMA (Cat #A-9563, Sigma, Germany).
# Data analysis: The percent inhibition of the enzyme activity in presence of test compounds were calculated using the equation, percent (%) Inhibition=100−[(Fi/Fc)*100] where Fc is the fluorescence corresponding to initial enzyme activity and Fi is the fluorescence corresponding to the enzyme activity in presence of inhibitor. The IC50 values were calculated by fitting the dose-response data to a sigmoidal curve fitting equation using Graph Pad prism software (Version 5, La Jolla, Calif.).
# MMP13 Catalytic Domain (CD) Potency of the Described Examples Determined Using Time Resolved Fluorescence Resonance Energy Transfer (FRET) Enzyme Assays: […]
row,SMILES,IC50
1,COc1ccc(CNC(=O)c2cc(C3=NOC(c4ccc(OC)cc4)C3)nc(C)n2)cc1 (stereo not drawn),0.01 to 0.1 µM
2,COc1ccc(CNC(=O)c2cc(C3=NOC(c4ccc(N5CCOCC5)cc4)C3)nc(C)n2)cc1 (stereo not drawn),0.01 to 0.1 µM
3,COc1ccc(CNC(=O)c2cc(C3=NOC(c4ccc(N5CCCCC5)cc4)C3)nc(C)n2)cc1 (stereo not drawn),0.1 to 1 µM
4,COc1ccc(CNC(=O)c2cc(C3=NOC(c4ccc(N(C)C)cc4)C3)nc(C)n2)cc1 (stereo not drawn),0.1 to 1 µM
5,COc1ccc(CNC(=O)c2cc(C3=NOC(c4cccc(OCCO)c4)C3)nc(C)n2)cc1 (stereo not drawn),0.01 to 0.1 µM
6,COc1ccc(CNC(=O)c2cc(C3=NOC(c4ccccn4)C3)nc(C)n2)cc1 (stereo not drawn),0.1 to 1 µM
7,COc1ccc(CNC(=O)c2cc(C3=NOC(C4CCCCC4)C3)nc(C)n2)cc1 (stereo not drawn),0.01 to 0.1 µM
8,COc1ccc(CNC(=O)c2cc(C3=NOC(c4ccc(CO)cc4)C3)nc(C)n2)cc1 (stereo not drawn),0.01 to 0.1 µM
9,Cc1nc(C(=O)NCc2ccc(F)c(C)c2)cc(C2=NOC(C3CCN(S(C)(=O)=O)CC3)C2)n1 (stereo not drawn),< 0.01 µM
10,Cc1nc(C(=O)NCc2ccc(F)c(C)c2)cc(C2=NOC(C3CCN(C(=O)CO)CC3)C2)n1 (stereo not drawn),0.01 to 0.1 µM
11,COc1cc(CNC(=O)c2cc(C3=NOC(c4cnccn4)C3)nc(C)n2)ccc1F (stereo not drawn),0.01 to 0.1 µM
12,COc1cc(CNC(=O)c2cc(C3=NOC(C4CCN(C(=O)C(C)(C)O)CC4)C3)nc(C)n2)ccc1F (stereo not drawn),0.01 to 0.1 µM
13,COc1cc(CNC(=O)c2cc(C3=NOC(C4CCN(S(=O)(=O)C5CC5)CC4)C3)nc(C)n2)ccc1F (stereo not drawn),0.01 to 0.1 µM
14,Cc1nc(C(=O)NCc2ccc(F)c(F)c2)cc(C2=NOC(c3ccccn3)C2)n1 (stereo not drawn),0.01 to 0.1 µM
15,CC(=O)N1CCC(C2CC(c3cc(C(=O)NCc4ccc(F)c(F)c4)nc(C)n3)=NO2)CC1 (stereo not drawn),0.01 to 0.1 µM
16,Cc1nc(C(=O)NCc2ccc(F)c(F)c2)cc(C2=NOC(C3CCN(S(C)(=O)=O)CC3)C2)n1 (stereo not drawn),0.01 to 0.1 µM
17,Cc1nc(C(=O)NCc2ccc(F)c(F)c2)cc(C2=NOC(C3CCN(C(=O)CO)CC3)C2)n1 (stereo not drawn),0.01 to 0.1 µM
18,CCS(=O)(=O)N1CCC(C2CC(c3cc(C(=O)NCc4ccc(F)c(OC)c4)nc(C)n3)=NO2)CC1 (stereo not drawn),< 0.01 µM
19,COc1cc(CNC(=O)c2cc(C3=NOC(C4CCN(C(=O)C(C)C)CC4)C3)nc(C)n2)ccc1F (stereo not drawn),0.01 to 0.1 µM
20,Cc1nc(C(=O)NCc2ccc(F)cc2)cc(C2=NOC(c3ccccn3)C2)n1 (stereo not drawn),0.01 to 0.1 µM
21,CC(=O)N1CCC(C2CC(c3cc(C(=O)NCc4ccc(F)c(Cl)c4)nc(C)n3)=NO2)CC1 (stereo not drawn),0.01 to 0.1 µM
22,Cc1nc(C(=O)NCc2ccc(F)c(Cl)c2)cc(C2=NOC(C3CCN(C(=O)CO)CC3)C2)n1 (stereo not drawn),0.01 to 0.1 µM
23,COc1cccc(CNC(=O)c2cc(C3=NOC(c4ccccn4)C3)nc(C)n2)c1 (stereo not drawn),0.01 to 0.1 µM
24,CC(=O)N1CCC(C2CC(c3cc(C(=O)NCc4ccc(F)cc4)nc(C)n3)=NO2)CC1 (stereo not drawn),0.01 to 0.1 µM

row,SMILES,IC50
1,Cc1nc(C(=O)NCc2ccc(F)cc2)cc(C2=NOC(C3CCN(S(C)(=O)=O)CC3)C2)n1 (stereo not drawn),< 0.01 µM
2,Cc1nc(C(=O)NCc2ccc(F)cc2)cc(C2=NOC(C3CCN(C(=O)CO)CC3)C2)n1 (stereo not drawn),0.01 to 0.1 µM
3,COc1cccc(CNC(=O)c2cc(C3=NOC(C4CCN(C(C)=O)CC4)C3)nc(C)n2)c1 (stereo not drawn),0.01 to 0.1 µM
4,COc1cccc(CNC(=O)c2cc(C3=NOC(C4CCN(S(C)(=O)=O)CC4)C3)nc(C)n2)c1 (stereo not drawn),< 0.01 µM
5,COc1cccc(CNC(=O)c2cc(C3=NOC(C4CCN(C(=O)CO)CC4)C3)nc(C)n2)c1 (stereo not drawn),0.01 to 0.1 µM
6,COc1cc(CNC(=O)c2cc(C3=NOC(C4CCN(C(=O)CN(C)C)CC4)C3)nc(C)n2)ccc1F (stereo not drawn),0.01 to 0.1 µM
7,COc1cc(CNC(=O)c2cc(C3=NOC(C4CCN(S(=O)(=O)C(C)C)CC4)C3)nc(C)n2)ccc1F (stereo not drawn),< 0.01 µM
8,COCC(=O)N1CCC(C2CC(c3cc(C(=O)NCc4ccc(F)c(OC)c4)nc(C)n3)=NO2)CC1 (stereo not drawn),0.01 to 0.1 µM
9,COc1cc(CNC(=O)c2cc(C3=NOC(C4CCN(C(=O)C5CCC5)CC4)C3)nc(C)n2)ccc1F (stereo not drawn),0.01 to 0.1 µM
10,COc1cc(CNC(=O)c2cc(C3=NOC(C4CCN(C(=O)CNS(C)(=O)=O)CC4)C3)nc(C)n2)ccc1F (stereo not drawn),0.01 to 0.1 µM
11,COc1cc(CNC(=O)c2cc(C3=NOC(c4ccc(C#N)cn4)C3)nc(C)n2)ccc1F (stereo not drawn),< 0.01 µM
12,COc1cc(CNC(=O)c2cc(C3=NOC(c4ccc(CO)cn4)C3)nc(C)n2)ccc1F (stereo not drawn),< 0.01 µM
13,CNC(=O)c1ccc(C2CC(c3cc(C(=O)NCc4ccc(F)c(OC)c4)nc(C)n3)=NO2)nc1 (stereo not drawn),0.01 to 0.1 µM
14,CNC(=O)NCC(=O)N1CCC(C2CC(c3cc(C(=O)NCc4ccc(F)c(OC)c4)nc(C)n3)=NO2)CC1 (stereo not drawn),0.01 to 0.1 µM
15,COc1cc(CNC(=O)c2cc(C3=NOC(c4ccc(C(C)O)cn4)C3)nc(C)n2)ccc1F (stereo not drawn),< 0.01 µM
16,COc1cc(CNC(=O)c2cc(C3=NOC(C4CCN(C(=O)N(C)CCO)CC4)C3)nc(C)n2)ccc1F (stereo not drawn),< 0.01 µM
17,COc1cc(CNC(=O)c2cc(C3=NOC(C4CCN(C(=O)NC(C)C)CC4)C3)nc(C)n2)ccc1F (stereo not drawn),0.01 to 0.1 µM
18,COc1cc(CNC(=O)c2cc(C3=NOC(C4CCN(S(=O)(=O)c5nccn5C)CC4)C3)nc(C)n2)ccc1F (stereo not drawn),< 0.01 µM
19,COc1cc(CNC(=O)c2cc(C3=NOC(C4CCN(S(=O)(=O)c5cn(C)cn5)CC4)C3)nc(C)n2)ccc1F (stereo not drawn),< 0.01 µM
20,COc1cc(CNC(=O)c2cc(C3=NOC(C4CCN(S(=O)(=O)c5cn(C)c(C)n5)CC4)C3)nc(C)n2)ccc1F (stereo not drawn),< 0.01 µM
21,COc1cc(CNC(=O)c2cc(C3=NOC(C4CCN(S(=O)(=O)c5c(C)noc5C)CC4)C3)nc(C)n2)ccc1F (stereo not drawn),< 0.01 µM
22,COc1cc(CNC(=O)c2cc(C3=NOC(c4ccc(S(C)(=O)=O)cn4)C3)nc(C)n2)ccc1F (stereo not drawn),< 0.01 µM
23,COc1cc(CNC(=O)c2cc(C3=NOC(c4ccc(=O)n(C)c4)C3)nc(C)n2)ccc1F (stereo not drawn),0.01 to 0.1 µM
24,COc1cc(CNC(=O)c2cc(C3=NOC(c4ccc(C(C)=O)cn4)C3)nc(C)n2)ccc1F (stereo not drawn),< 0.01 µM

row,SMILES,IC50
1,COc1cc(CNC(=O)c2cc(C3=NOC(c4ccc(-c5nc(C)no5)cn4)C3)nc(C)n2)ccc1F (stereo not drawn),< 0.01 µM
2,Cc1nc(C(=O)NCc2ccc(F)cc2)cc(C2=NO[C@H]([C@H]3CO[C@H](CO)CO3)C2)n1,0.01 to 0.1 µM
3,Cc1nc(C(=O)NCc2ccc(F)cc2)cc(C2=NO[C@@H]([C@H]3CO[C@H](CO)CO3)C2)n1,> 1 µM
4,COc1ccc(CNC(=O)c2cc(C3=NO[C@H]([C@H]4CO[C@H](CO)CO4)C3)nc(C)n2)cc1,0.01 to 0.1 µM
5,COc1ccc(CNC(=O)c2cc(C3=NO[C@@H]([C@H]4CO[C@H](CO)CO4)C3)nc(C)n2)cc1,> 1 µM
6,COc1cccc(CNC(=O)c2cc(C3=NO[C@@H]([C@H]4CO[C@H](CO)CO4)C3)nc(C)n2)c1,> 1 µM
7,COc1ccc(C2CC(c3ccnc(C(=O)NCc4cccc(OC)c4)c3)=NO2)cc1 (stereo not drawn),0.01 to 0.1 µM
8,COc1cccc(CNC(=O)c2cc(C3=NOC(C)(c4ccc(Cl)cc4)C3)ccn2)c1 (stereo not drawn),> 1 µM
9,COc1cccc(CNC(=O)c2cc(C3=NOC(c4ccc(C(=O)O)cc4)C3)ccn2)c1 (stereo not drawn),< 0.01 µM
10,COc1ccc(CNC(=O)c2cc(C3=NOC(c4ccc(CN(C)C)cc4)C3)ccn2)cc1 (stereo not drawn),> 1 µM
11,COc1ccc(CNC(=O)c2cc(C3=NOC(c4ccc(C(=O)O)cc4)C3)ccn2)cc1 (stereo not drawn),0.01 to 0.1 µM
12,COc1ccc(CNC(=O)c2cc(C3=NOC(C)(c4ccc(Cl)cc4)C3)ccn2)cc1 (stereo not drawn),0.1 to 1 µM
13,COc1ccc(CNC(=O)c2cc(C3=NOC(C)(c4ccccc4)C3)ccn2)cc1 (stereo not drawn),> 1 µM
14,COc1ccc(CNC(=O)c2cc(C3=NOC(c4cnccn4)C3)ccn2)cc1 (stereo not drawn),> 1 µM
15,COc1ccc(CNC(=O)c2cc(C3=NOC(c4ccc(OC)cc4)C3)ccn2)cc1 (stereo not drawn),0.1 to 1 µM
16,COc1cccc(CNC(=O)c2cc(C3=NO[C@H]([C@H]4CO[C@H](CO)CO4)C3)nc(C)n2)c1,0.01 to 0.1 µM
17,COc1cccc(CNC(=O)c2cc(C3=NO[C@@H]([C@@H]4CO[C@@H](CO)CO4)C3)nc(C)n2)c1,> 1 µM
18,COc1cccc(CNC(=O)c2cc(C3=NO[C@H]([C@@H]4CO[C@@H](CO)CO4)C3)nc(C)n2)c1,0.01 to 0.1 µM
19,Cc1nc(C(=O)NCc2ccc(F)cc2)cc(C2=NO[C@@H]([C@@H]3CO[C@@H](CO)CO3)C2)n1,> 1 µM
20,Cc1nc(C(=O)NCc2ccc(F)cc2)cc(C2=NO[C@H]([C@H]3CO[C@@H](CO)CO3)C2)n1,0.01 to 0.1 µM
21,COc1cc(CNC(=O)c2cc(C3=NO[C@H]([C@H]4CO[C@H](CNC(C)=O)CO4)C3)nc(C)n2)ccc1F,< 0.01 µM
22,COc1cc(CNC(=O)c2cc(C3=NO[C@H]([C@H]4CO[C@H](CNS(C)(=O)=O)CO4)C3)nc(C)n2)ccc1F,< 0.01 µM
23,COc1cc(CNC(=O)c2cc(C3=NOC(C4CCN(C(=O)Nc5nccs5)CC4)C3)nc(C)n2)ccc1F (stereo not drawn),0.01 to 0.1 µM
24,COc1cc(CNC(=O)c2cc(C3=NOC([C@H]4CC[C@H](CNC(C)=O)CC4)C3)nc(C)n2)ccc1F (stereo partly drawn),< 0.01 µM
